Values quoted from earlier work in patent US9840652B2, “Water-based drilling fluid with cyclodextrin shale stabilizer” (Halliburton Energy Services, Inc., priority 2012, dated 2017).

Tests used:
[1] = tested on: Cyprinus carpio (common carp)
[2] = tested on: Daphnia magna
[3] = tested on: desmodesmus subspicatus

OC[C@H]1O[C@@H]2O[C@H]3[C@H](O)[C@@H](O)[C@@H](O[C@H]4[C@H](O)[C@@H](O)[C@@H](O[C@H]5[C@H](O)[C@@H](O)[C@@H](O[C@H]6[C@H](O)[C@@H](O)[C@@H](O[C@H]7[C@H](O)[C@@H](O)[C@@H](O[C@H]8[C@H](O)[C@@H](O)[C@@H](O[C@H]1[C@H](O)[C@H]2O)O[C@@H]8CO)O[C@@H]7CO)O[C@@H]6CO)O[C@@H]5CO)O[C@@H]4CO)O[C@@H]3CO [β-cyclodextrin]
96-hr LC50 [1]: 7561 µg/mL | 48-hr EC50 [2]: > 100 µg/mL | 72-hr density EC50 [3]: > 100 µg/mL
